Laboratory results published in BigSolDB 2.1.

CC(C)(C)c1ccc(-c2nnc(-c3ccc(-c4ccccc4)cc3)o2)cc1
solubility (mole fraction)
Conditions | 273.15 K | 283.15 K | 293.15 K | 303.15 K | 313.15 K | 323.15 K | 333.15 K
in DMSO | – | – | 0.00363 | 0.00603 | 0.00886 | 0.0133 | 0.0187
in NMP | – | 0.0542 | 0.0662 | 0.0767 | 0.0954 | 0.115 | –
in THF | – | 0.0524 | 0.0589 | 0.065 | 0.0725 | 0.0817 | –
in acetonitrile | – | 0.00143 | 0.00234 | 0.00313 | 0.00464 | 0.00615 | –
in chlorobenzene | – | 0.0587 | 0.0709 | 0.0834 | 0.0952 | 0.112 | –
in dichloromethane | 0.0818 | 0.0911 | 0.104 | 0.112 | – | – | –
in ethanol | – | 0.00062 | 0.000963 | 0.00148 | 0.00222 | 0.00315 | –
in ethyl acetate | – | 0.0114 | 0.0153 | 0.0223 | 0.03 | 0.0392 | –
in isopropanol | – | 0.000711 | 0.0012 | 0.00174 | 0.00274 | 0.00324 | –
in methanol | – | 0.000412 | 0.000703 | 0.00105 | 0.00185 | 0.00281 | –
in n-hexane | – | 0.000411 | 0.000596 | 0.000996 | 0.00164 | 0.00235 | –
in toluene | – | 0.0303 | 0.04 | 0.0585 | 0.0834 | 0.109 | –
